# Test results: patent US20240352046A1, “ECTONUCLEOTIDE PYROPHOSPHATASE-PHOSPHODIESTERASE-1 (ENPP1) INHIBITORS AND USES THEREOF” (1cBio, Inc., priority 2020, published 2024)
# Molecular target: ENPP-1 (Ectonucleotide Pyrophosphatase/Phosphodiesterase 1) (Homo sapiens (Human), UniProt P22413)
# Test: ENPP1 inhibition assay (AMP Glo, cGAMP substrate)
# Assay type: biochemical
# Conditions: cGAMP 20 μM substrate, ENPP1 1 nM
# Protocol: IC50 values of compounds against ENPP-1 (Ectonucleotide Pyrophosphatase/Phosphodiesterase 1) were determined at Integral BioSciences (India) using AMP Glo (Promega, Cat #V5011). Assay was performed in a 30 μL final volume in a white 96-well Half Area plate (Costar,Cat #3693). Dose response curve for the compounds were prepared in duplicates with starting conc. at 5 μM and a three-fold titration was performed. The reaction buffer consisted of 50 mM Tris (pH 8.0), 0.5 mM CaCl2), 1 μM ZnCl2, 250 mM NaCl and 0.1 mg/ml BSA. To the compound dilution, 15 μL of ENPP1 enzyme (R&D Systems; Cat #6136-EN-010) was added to each well (final conc. 1 nM) and the mix was pre-incubated for 15 min at RT. An equal volume (15 μL) containing cGAMP (Sigma, Cat #SML-1229) (final conc. 20 μM) was added to initiate the enzyme reaction and the reaction was incubated for 30 min at RT. The reaction was then stopped by heating at 90° C. for 3 minutes. 10 μl of reaction was then transferred to 384 well white, medium binding plates (Grenier, Cat #781075) to which 10 μl of AMP-Glo Reagent 1 was added and mixed well and incubated for 1 hour at 25° C. Following 60 min incubation, 20 μL of detection mixture was added to the enzyme reaction bringing the final volume to 40 μL. The reaction was further incubated for 60 min at RT after which the plates were read using BioTek Plate reader.
# Analysis was done using the standard curve by non-linear regression, variable slope inhibitor curve fits (Graph-Pad Prism) and IC50's of compounds were determined wherever possible.
# Sequence of ENPP-1 (Ectonucleotide Pyrophosphatase/Phosphodiesterase 1) (P22413 whole entry): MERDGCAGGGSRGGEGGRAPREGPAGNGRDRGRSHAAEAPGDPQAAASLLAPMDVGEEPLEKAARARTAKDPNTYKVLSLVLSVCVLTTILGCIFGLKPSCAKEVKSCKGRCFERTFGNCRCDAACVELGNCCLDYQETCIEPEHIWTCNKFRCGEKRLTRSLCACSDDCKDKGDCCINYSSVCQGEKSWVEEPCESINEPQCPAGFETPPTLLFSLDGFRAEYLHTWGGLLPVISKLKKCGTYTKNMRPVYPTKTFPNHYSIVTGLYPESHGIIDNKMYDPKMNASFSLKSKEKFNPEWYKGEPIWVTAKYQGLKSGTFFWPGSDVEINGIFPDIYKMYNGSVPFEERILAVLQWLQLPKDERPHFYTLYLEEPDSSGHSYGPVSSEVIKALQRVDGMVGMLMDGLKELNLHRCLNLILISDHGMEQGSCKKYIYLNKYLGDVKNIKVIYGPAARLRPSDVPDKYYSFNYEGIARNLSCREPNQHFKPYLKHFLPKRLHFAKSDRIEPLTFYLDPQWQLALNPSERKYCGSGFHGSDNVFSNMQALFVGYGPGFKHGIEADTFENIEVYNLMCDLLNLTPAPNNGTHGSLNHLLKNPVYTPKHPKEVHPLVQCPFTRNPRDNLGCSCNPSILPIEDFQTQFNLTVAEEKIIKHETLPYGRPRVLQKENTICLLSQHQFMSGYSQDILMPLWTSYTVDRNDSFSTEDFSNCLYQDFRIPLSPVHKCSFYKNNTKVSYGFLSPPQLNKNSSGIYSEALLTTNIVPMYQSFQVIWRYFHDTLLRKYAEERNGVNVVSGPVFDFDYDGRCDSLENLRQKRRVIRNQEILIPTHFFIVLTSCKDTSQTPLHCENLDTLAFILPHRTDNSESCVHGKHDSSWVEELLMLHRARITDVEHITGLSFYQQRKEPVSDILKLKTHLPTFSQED
row,Structure (SMILES),IC50 [µM]
1,"COc1cc(OC)c2ncnc(N3CC(CCNS(N)(=O)=O)C3)c2c1 [Compound 1.50, 4-(3-(2-sulfamoylaminoethyl)azetidine-1-yl)-6,8-di-methoxyquinazoline]",1.48
2,"COc1cc2ncnc(N3CC(CCNS(N)(=O)=O)C3)c2cc1F [Compound 1.66, 4-(3-(2-sulfamoylaminoethyl)azetidine-1-yl)-6-fluoro-7-methoxy quinazoline]",0.006
3,"COc1ccc2c(N3CC4(CC(NS(N)(=O)=O)C4)C3)ncnc2c1 [Compound 1.26, 4-(6-sulfamoylamino-2-azaspiro[3.3]heptan-2-yl)-7-methoxyquinazoline]",0.006
4,"COc1cc2ncnc(N3CC(CCP(=O)(O)O)C3)c2cc1OC [Compound 1.29, 2-(1-(6,7-dimethoxyquinazolin-4-yl)azetidin-3-yl)ethylphosphonic acid]",0.892
5,"CCc1nc(N2CC(CCNS(N)(=O)=O)C2)c2ccc(OC)cc2n1 [Compound 1.37, 2-ethyl-7-methoxy-4-[3-[2-(sulfamoylamino)ethyl]azetidin-1-yl]quinazoline]",> 3
6,"CN(C1CC2(C1)CN(c1ncnc3[nH]cc(Cl)c13)C2)S(N)(=O)=O [Compound 1.124, N-(2-(5-chloro-7,7α-dihydro-4αH-pyrrolo[2,3-d]pyrimidin-4-yl)-2-azaspiro[3.3]heptan-6-yl)-N-methylsulfamamide]",1.86
7,"COc1ccc2c(N3CC4(CC(N(C)S(N)(=O)=O)C4)C3)cnnc2c1 [Compound 1.87, N-(2-(7-methoxycinnolin-4-yl)-2-azaspiro[3.3]heptan-6-yl)-N-methylsulfamide]",0.024
8,"COc1cccc2c(N3CC(CCNS(N)(=O)=O)C3)ncnc12 [Compound 1.4, (2-(1-(8-methoxyquinazolin-4-yl)azetidin-3-yl)ethyl)aminosulfonamide]",0.072
9,"COc1ccc2c(N3CC(CCNS(N)(=O)=O)C3)nc(-c3cccnc3)nc2c1 [Compound 1.44, 4-(3-(2-sulfamoylaminoethyl)azetidine-1-yl)-7-methoxy-2-(pyridin-3-yl)quinazoline]",> 3
10,"COc1cccc2c(N3CC(CCNS(N)(=O)=O)C3)c(C#N)cnc12 [Compound 1.9, (2-(1-(3-cyano-8-methoxyquinolin-4-yl)azetidin-3-yl)ethyl)aminisulfonamide]",0.032
11,"COc1cc2ncnc(N3CC(CCNS(N)(=O)=O)C3)c2cc1C [Compound 1.54, N-(2-[1-(7-methoxy-6-methylquinazolin-4-yl)azetidin-3-yl]ethyl)sulfuric diamide]",1.68
12,"COc1cc2ncnc(N3CC4(CC(NS(N)(=O)=O)C4)C3)c2cc1OC [Compound 1.15, 4-(6-sulfamoylamino-2-azaspiro[3.3]heptan-2-yl)-6,7-dimethoxyquinazoline]",0.005
13,"COc1ccc2c(N3CC4(CC(N(CC(F)F)S(N)(=O)=O)C4)C3)ncnc2c1 [Compound 1.131, N-(2,2-difluoroethyl)-N-(2-(7-methoxyquinazolin-4-yl)-2-azaspiro[3.3]heptan-6-yl) sulfamamide]",0.055
14,"CN(C1CC2(C1)CN(c1ncnc3c(Cl)cn(C)c13)C2)S(N)(=O)=O [Compound 1.123, N-(2-(7-chloro-5-methyl-5H-pyrrolo[3,2-d]pyrimidin-4-yl)-2-azaspiro[3.3]heptan-6-yl)-N-methylsulfamamide]",0.039

# More lines, now with the values ahead:
row,IC50 [µM],Structure (SMILES)
1,1.89,"Cc1cc(Cl)n2ncnc(N3CC4(CC(N(C(C)C)S(N)(=O)=O)C4)C3)c12 [Compound 1.82, N-(2-(7-chloro-5-methylpyrrolo[2,1-f][1,2,4]triazin-4-yl)-2-azaspiro[3.3]heptan-6-yl)-N-isopropylsulfamamide]"
2,0.964,"Cc1c(C#N)cn2ncnc(N3CC4(CC(N(C)S(N)(=O)=O)C4)C3)c12 [Compound 1.78, N-(2-(6-cyano-5-methylpyrrolo[1,2-f][1,2,4]triazin-4-yl)-2-azaspiro[3.3]heptan-6-yl)-N-methylsulfamamide]"
3,0.039,"CCCCN(C1CC2(C1)CN(c1ncnn3c(Cl)cc(C)c13)C2)S(N)(=O)=O [Compound 1.114, N-butyl-N-(2-(7-chloro-5-methylpyrrolo[2,1-f][1,2,4]triazin-4-yl)-2-azaspiro[3.3]heptan-6-yl)sulfamamide]"
4,1.51,"Cc1cc(Cl)n2ncnc(N3CC(CCN(C4CC4)S(N)(=O)=O)C3)c12 [Compound 1.92, N-(2-(1-(7-chloro-5-methylpyrrolo[2,1-f][1,2,4]triazin-4-yl)azetidin-3-yl)ethyl)-N-cyclopropylsulfamamide]"
5,0.245,"Cc1cc(Cl)n2ncnc(N3CC4(CC(N(C5CC5)S(N)(=O)=O)C4)C3)c12 [Compound 1.81, N-(2-(7-chloro-5-methylpyrrolo[2,1-f][1,2,4]triazin-4-yl)-2-azaspiro[3.3]heptan-6-yl)-N-cyclopropylsulfamamide]"
6,> 3,"Cc1cc(Cl)n2nc(-c3ccc(F)cc3)nc(N3CC4(CC(N(C)S(N)(=O)=O)C4)C3)c12 [Compound 1.106, N-(2-(7-chloro-2-(4-fluorophenyl)-5-methylpyrrolo[2,1-f][1,2,4]triazin-4-yl)-2-azaspiro[3.3]heptan-6-yl)-N-methylsulfamamide]"
7,0.03,Cc1cc(Cl)n2ncnc(N3CC4(CC(N(CC(C)(F)F)S(N)(=O)=O)C4)C3)c12 [Compound 1.128]
8,0.141,"Cc1cc(Cl)n2ncnc(N3CC4(CC(N(Cc5ccccc5)S(N)(=O)=O)C4)C3)c12 [Compound 1.112, N-benzyl-N-(2-(7-chloro-5-methylpyrrolo[2,1-f][1,2,4]triazin-4-yl)-2-azaspiro[3.3]heptan-6-yl)sulfamamide]"
9,0.59,"CCCN(C1CC2(C1)CN(c1nc(C)nn3c(Cl)cc(C)c13)C2)S(N)(=O)=O [Compound 1.103, N-(2-(7-chloro-2,5-dimethylpyrrolo[1,2-f][1,2,4]triazin-4-yl)-2-azaspiro[3.3]heptan-6-yl)-N-propylsulfatamide]"
10,0.043,"Cc1cc(Cl)n2ncnc(N3CC4(CC(N(CCF)S(N)(=O)=O)C4)C3)c12 [Compound 1.127, N-[2-(7-chloro-5-methylpyrrolo[2,1-f][1,2,4]triazin-4-yl)-2-azaspiro[3.3]hept-6-yl]-2-fluoroethylsulfuric diamide]"

# Test system: IP-10 release in differentiated THP-1 cells
# Test: IP-10 cytokine release assay in THP-1 cell lines
# Assay type: cell-based, Human
# Conditions: Homo sapiens, THP-1, read-out: EC50 (μM)@ 1 μM of cGAMP
# Protocol: Percent release of Interferon gamma-induced protein 10 (IP-10) was determined in acute monocytic leukemia (THP-1; ATCC® TIB-202™) cell line. THP-1 cells (0.2×10^6 cells/well) were differentiated using phorbol 12-myristate 13-acetate (PMA, 10 nM (final concentration); Cat #P8139, Sigma) and incubated for 24 h at 37° C., 5% CO2 in an incubator (cell culture conditions) prior to treating with serial dilutions of compounds (3 fold, 6 point dose response starting at 10 μM). After treatment with the compounds cells were further incubated for 2 h under cell culture conditions and then exposed to 2′,3′-cGAMP (c-GAMP, 1 μM (final concentration); Cat #SML 1229, Sigma). Differentiated THP-1 cells were further cultured for 24 h after which the supernatant was harvested, and ELISA was performed as per the manufacturer's protocol (BD optEIA Human IP-10 ELISA Set; Cat #550926 & 550534, BD Biosciences). Plates were read in Biotek plate reader by measuring absorbance at 450 nm.
# The release of absolute IP-10 in differentiated THP-1 by compounds in the presence of cGAMP was quantified with reference to standard after subtracting blank (negative) reading from the test readings. The absolute release of IP-10 in the presence of cGAMP (1 μM) is given in the bar-graph (FIG.-1) and in the table-B2a.
# The release of IP-10 in differentiated THP-1 by compounds over cGAMP induced release at four different concentrations of cGAMP (1, 5, 10 & 30 μM) was quantified with reference to standard by normalizing the blank (negative) subtracted test readings from average of cGAMP activated cells at that particular concentration. The EC50's was calculated by fitting the curve to the “four-parameter variable slope logistic model” using Prism Graph Pad.
row,Structure (SMILES),EC50 [µM]
1,"COc1cc2ncnc(N3CC(CCNC(C)=O)C3)c2cc1OC [Compound 1.7, N-(2-[1-(6,7-dimethoxyquinazolin-4-yl)azetidin-3-yl]ethyl)acetamide]",> 30

# Same assay, conditions: Homo sapiens, read-out: EC50 (μM)@ 1 μM of cGAMP; IP-10 release over cGAMP induced release, THP-1, 1 μM cGAMP
row,EC50 [µM],Structure (SMILES)
1,> 30,"COc1cc(OC)c2ncnc(N3CC(CCNS(N)(=O)=O)C3)c2c1 [Compound 1.50, 4-(3-(2-sulfamoylaminoethyl)azetidine-1-yl)-6,8-di-methoxyquinazoline]"
2,< 0.12,"COc1cc2ncnc(N3CC(CCNS(N)(=O)=O)C3)c2cc1F [Compound 1.66, 4-(3-(2-sulfamoylaminoethyl)azetidine-1-yl)-6-fluoro-7-methoxy quinazoline]"
3,< 0.12,"COc1ccc2c(N3CC4(CC(NS(N)(=O)=O)C4)C3)ncnc2c1 [Compound 1.26, 4-(6-sulfamoylamino-2-azaspiro[3.3]heptan-2-yl)-7-methoxyquinazoline]"
4,< 0.12,"COc1cc2ncnc(N3CC4(CC(C(=O)NO)C4)C3)c2cc1OC [Compound 1.63, 2-(6,7-dimethoxyquinazolin-4-yl)-N-hydroxy-2-azaspiro[3.3]heptane-6-carboxamide]"
5,19.9,"COc1cc2ncnc(N3CC(CCN(C)S(N)(=O)=O)C3)c2cc1OC [Compound 1.47, 4-(3-(2-sulfamoylmethylaminoethyl)azetidine-1-yl)-6,7-di-methoxyquinazoline]"
6,0.724,"COc1cc2ncnc(N3CC(CCCNS(N)(=O)=O)C3)c2cc1OC [Compound 1.69, 4-3-(3-sulfamoylaminopropyl)azetidin-1-yl-6,7-dimethoxyquinazoline]"

# Same assay, conditions: cGAMP (1 μM) alone, differentiated THP-1
row,Structure (SMILES),Percent release IP-10 (Absolute) [%]
1,"Nc1nc2c(ncn2[C@@H]2O[C@@H]3COP(=O)(O)O[C@H]4[C@@H](O)[C@H](n5cnc6c(N)ncnc65)O[C@@H]4COP(=O)(O)O[C@@H]2[C@@H]3O)c(=O)[nH]1 [CGAMP, 2′,3′-cGAMP, reference compound]",5.6
